Experimental data as given in article PMC5811606, “Characterization of ^111In-labeled Glucose-Dependent Insulinotropic Polypeptide as a Radiotracer for Neuroendocrine Tumors” (Scientific Reports, 2018).
Where two headings read alike, the source gives them in different places.

Assay: Peptide dose escalation study, BHK-GIPR tumor mice
Assay type: in vivo, BALB/c nude mice
Conditions: female, mouse, iv, total radioactivity, BHK-GIPR tumor BALB/c nude mice, i.v., 4 h p.i., mean n=5
Method: All animal experiments were approved by the Animal Welfare Body of the Radboud University, Nijmegen, The Netherlands and carried out in accordance with their guidelines. Six to eight weeks old, female BALB/c nude mice and C3H mice were purchased from Janvier labs (Le Genest Saint Isle, France). For all in vivo experiments, 6-8 weeks old female BALB/c nude mice were injected subcutaneously in the right shoulder with 0.2 ml of a 2.5 × 10^7 cells/ml suspension of BHK-GIPR transfected cells or with 0.2 ml of a 2.5 × 10^7 cells/ml suspension of NES2Y cells mixed with matrigel (2:1) in the right shoulder. When the tumor reached a diameter of 2-5 mm, mice were randomly divided in groups.
To determine the optimal peptide dose of [Lys^37(DTPA)]N-acetyl-GIP1-42, BHK-GIPR transfected tumor bearing BALB/c nude mice (n = 5/group) were injected intravenously with approximately 3 MBq [Lys^37(^111In-DTPA)]N-acetyl-GIP1-42 (0.05 µg) in the tail vein and were co-injected with escalating amounts of unlabeled [Lys^37(DTPA)]N-acetyl-GIP1-42 (0.05 µg – 1.95 µg), resulting in final peptide doses ranging from 0.1 to 2 µg/mouse (0.02 – 0.4 nmol/mouse) (5 groups, n = 5/group). Four hours after injection, mice were euthanized by CO2/O2 suffocation and tumors and other relevant tissues (heart, muscle, lung, spleen, pancreas, kidney, liver, stomach and duodenum) were dissected, weighed and measured in a well type gamma counter. The percentage injected dose per gram of tissue (%ID/g) was determined for each tissue.

Compound `CC[C@H](C)[C@H](NC(=O)[C@H](CO)NC(=O)[C@H](Cc1ccc(O)cc1)NC(=O)[C@H](CC(=O)O)NC(=O)[C@H](CO)NC(=O)[C@@H](NC(=O)[C@H](Cc1ccccc1)NC(=O)[C@@H](NC(=O)CNC(=O)[C@H](CCC(=O)O)NC(=O)[C@H](C)NC(=O)[C@H](Cc1ccc(O)cc1)NC(C)=O)[C@@H](C)O)[C@@H](C)CC)C(=O)N[C@@H](C)C(=O)N[C@@H](CCSC)C(=O)N[C@@H](CC(=O)O)C(=O)N[C@@H](CCCCN)C(=O)N[C@H](C(=O)N[C@@H](Cc1c[nH]cn1)C(=O)N[C@@H](CCC(N)=O)C(=O)N[C@@H](CCC(N)=O)C(=O)N[C@@H](CC(=O)O)C(=O)N[C@@H](Cc1ccccc1)C(=O)N[C@H](C(=O)N[C@@H](CC(N)=O)C(=O)N[C@@H](Cc1c[nH]c2ccccc12)C(=O)N[C@@H](CC(C)C)C(=O)N[C@@H](CC(C)C)C(=O)N[C@@H](C)C(=O)N[C@@H](CCC(N)=O)C(=O)N[C@@H](CCCCN)C(=O)NCC(=O)N[C@@H](CCCCN)C(=O)N[C@@H](CCCCN)C(=O)N[C@@H](CC(N)=O)C(=O)N[C@@H](CC(=O)O)C(=O)N[C@@H](Cc1c[nH]c2ccccc12)C(=O)N[C@@H](CCCCNC(=O)CN(CCN(CCN(CC(=O)O)CC(=O)O)CC(=O)O)CC(=O)O)C(=O)N[C@@H](Cc1c[nH]cn1)C(=O)N[C@@H](CC(N)=O)C(=O)N[C@H](C(=O)N[C@H](C(=O)N[C@@H](CCC(N)=O)C(=O)O)[C@@H](C)O)[C@@H](C)CC)C(C)C)[C@@H](C)CC` [[Lys^37(^111In-DTPA)]N-acetyl-GIP1-42, metal not drawn] has a tissue uptake at 4 h (pancreas, 0.1 ug/mouse, peptide dose 0.1 µg, read-out: Pancreas uptake) of 0.169 %ID/g, a tissue uptake at 4 h (pancreas, 0.2 ug/mouse, peptide dose 0.2 µg, read-out: Pancreas uptake) of 0.234 %ID/g and a tissue uptake at 4 h (pancreas, 0.5 ug/mouse, peptide dose 0.5 µg, read-out: Pancreas uptake) of 0.199 %ID/g. The tissue uptake at 4 h (pancreas, 1 ug/mouse, peptide dose 1 µg, read-out: Pancreas uptake) was 0.257 %ID/g, the tissue uptake at 4 h (pancreas, 2 ug/mouse, peptide dose 2 µg, read-out: Pancreas uptake) was 0.213 %ID/g and the tissue uptake at 4 h (spleen, 0.1 ug, peptide dose 0.1 µg, read-out: Spleen uptake) was 0.648 %ID/g. It also gave a tissue uptake at 4 h (spleen, 0.2 ug, peptide dose 0.2 µg, read-out: Spleen uptake) of 0.692 %ID/g, a tissue uptake at 4 h (spleen, 0.5 ug, peptide dose 0.5 µg, read-out: Spleen uptake) of 0.594 %ID/g and a tissue uptake at 4 h (spleen, 1 ug, peptide dose 1 µg, read-out: Spleen uptake) of 0.781 %ID/g. For the same compound, the tissue uptake at 4 h (spleen, 2 ug, peptide dose 2 µg, read-out: Spleen uptake) was 0.713 %ID/g, the tissue uptake at 4 h (stomach, 0.1 ug/mouse, peptide dose 0.1 µg, read-out: Stomach uptake) was 0.41 %ID/g and the tissue uptake at 4 h (stomach, 0.2 ug/mouse, peptide dose 0.2 µg, read-out: Stomach uptake) was 0.418 %ID/g. The tissue uptake at 4 h (stomach, 0.5 ug/mouse, peptide dose 0.5 µg, read-out: Stomach uptake) was 0.411 %ID/g, the tissue uptake at 4 h (stomach, 1 ug/mouse, peptide dose 1 µg, read-out: Stomach uptake) was 0.527 %ID/g and the tissue uptake at 4 h (stomach, 2 ug/mouse, peptide dose 2 µg, read-out: Stomach uptake) was 0.437 %ID/g. The tissue to tissue ratio at 4 h (tumor/blood, 2 ug/mouse, peptide dose 2 µg, read-out: Tumor/Blood) was 38, the tissue to tissue ratio at 4 h (tumor/heart, 0.1 ug/mouse, peptide dose 0.1 µg, read-out: Tumor/Heart) was 35.6 and the tissue to tissue ratio at 4 h (tumor/heart, 0.2 ug/mouse, peptide dose 0.2 µg, read-out: Tumor/Heart) was 33.1. For the same compound, the tissue to tissue ratio at 4 h (tumor/heart, 0.5 ug/mouse, peptide dose 0.5 µg, read-out: Tumor/Heart) was 14.6, the tissue to tissue ratio at 4 h (tumor/heart, 1 ug/mouse, peptide dose 1 µg, read-out: Tumor/Heart) was 16.4 and the tissue to tissue ratio at 4 h (tumor/heart, 2 ug/mouse, peptide dose 2 µg, read-out: Tumor/Heart) was 11.2. The tissue to tissue ratio at 4 h (tumor/kidney, 0.1 ug/mouse, peptide dose 0.1 µg, read-out: Tumor/Kidney) was 0.02, the tissue to tissue ratio at 4 h (tumor/kidney, 0.2 ug/mouse, peptide dose 0.2 µg, read-out: Tumor/Kidney) was 0.019 and the tissue to tissue ratio at 4 h (tumor/kidney, 0.5 ug/mouse, peptide dose 0.5 µg, read-out: Tumor/Kidney) was 0.011. For the same compound, the tissue to tissue ratio at 4 h (tumor/kidney, 1 ug/mouse, peptide dose 1 µg, read-out: Tumor/Kidney) was 0.01, the tissue to tissue ratio at 4 h (tumor/kidney, 2 ug/mouse, peptide dose 2 µg, read-out: Tumor/Kidney) was 0.008 and the tissue to tissue ratio at 4 h (tumor/lung, 0.1 ug/mouse, peptide dose 0.1 µg, read-out: Tumor/Lung) was 13. The tissue to tissue ratio at 4 h (tumor/lung, 0.2 ug/mouse, peptide dose 0.2 µg, read-out: Tumor/Lung) was 10, the tissue to tissue ratio at 4 h (tumor/lung, 0.5 ug/mouse, peptide dose 0.5 µg, read-out: Tumor/Lung) was 4.18 and the tissue to tissue ratio at 4 h (tumor/lung, 1 ug/mouse, peptide dose 1 µg, read-out: Tumor/Lung) was 4.81. The tissue to tissue ratio at 4 h (tumor/lung, 2 ug/mouse, peptide dose 2 µg, read-out: Tumor/Lung) was 3.58, the tissue to tissue ratio at 4 h (tumor/muscle, 0.1 ug/mouse, peptide dose 0.1 µg, read-out: Tumor/Muscle) was 33.7 and the tissue to tissue ratio at 4 h (tumor/muscle, 0.2 ug/mouse, peptide dose 0.2 µg, read-out: Tumor/Muscle) was 41.1. For the same compound, the tissue to tissue ratio at 4 h (tumor/muscle, 0.5 ug/mouse, peptide dose 0.5 µg, read-out: Tumor/Muscle) was 19.1, the tissue to tissue ratio at 4 h (tumor/muscle, 1 ug/mouse, peptide dose 1 µg, read-out: Tumor/Muscle) was 20.9 and the tissue to tissue ratio at 4 h (tumor/muscle, 2 ug/mouse, peptide dose 2 µg, read-out: Tumor/Muscle) was 12.2.
